Data taken from patent US20250304623A1, “PEPTIDES FOR INTRACELLULAR DELIVERY” (UNIVERSIDADE DE SANTIAGO DE COMPOSTELA, priority 2022, published 2025).
Starred links: 1 amine or outer side, 2 acyl side, 3 side chain; linkers in the order of their positions; H or OH if unused. Residues, ends and D or L forms follow the SMILES beside them. Groups on a side chain read outwards from the residue. *: point of attachment. Glutaryl = O=C(CCCC(=O)[*:2])[*:1]; NHNH2 = NN*

How the values were obtained:
Assay type in all cases: cell-based
Hek293 cells [1] = experiment: EGFP mRNA delivery, robotic library screening, Hek293
Procedure: Cells were seeded in a 96 well plate the day before the experiment at a concentration of 50,000 cell/mL (100 μL/w) in DMEM+10% FBS+1% Gln-Abt. For robotic library screening, the delivery of EGFP-mRNA (from TriLink, fully substituted with 5-methoxyuridine, capped and polyadenylated; TriLink, CleanCap® EGFP mRNA (5moU), ref. L-7201) in six different cell lines was performed. Amphiphilic molecule stock solutions were prepared in DMSO as described above and diluted in DMEM to afford a range of concentrations. The solutions of EGFP-mRNA/amphiphilic molecule complexes were freshly prepared prior to the transfection experiments. 35 μL of the corresponding amphiphile were added to 10 μL of a solution of EGFP-mRNA at 10 ng/μL in DMEM. The mixture was shaken for 30 min at room temperature before the addition to the cells. The cell medium was aspirated, and cells were washed with PBS twice. Cells were covered with 39 μL of DMEM and 11 μL of the complex's solution were added to the cells and incubated for 4 h (final concentration of peptide=2.5, 5 and 10 μM; final concentration of EGFP-mRNA=25 ng/well). After the incubation, the medium was replaced by 100 μL of fresh DMEM supplemented with 10% FBS. The total EGFP fluorescence was quantified after 72 h in a well plate reader. Amphiphile transfection efficiency was compared and normalized to Lipofectamine® MessengerMax efficiency (value of 1 in Tables 1-5 and 7; double underlined numbers). All experiments were done in triplicate.
(§1) Tables 1-7: RLuc (pDNA) or EGFP (mRNA) expression levels were normalized to Lipofectamine reagents (value=1) and expressed as fold-times signal increase. In the case of siRNA, the siRNA treated cells fluorescence was compared with siMOCK control fluorescence, while Cas9-RNP mediated knockout was measured against the fluorescence of untreated cells. In both siRNA and Cas9-RNP, values are expressed as % fluorescence reduction. Amphiphile concentration was 5 μM in all cases. All experiments were performed in triplicate.
Tables 14-19 show the mean (triplicates) fluorescence intensity measured after the transfection of EGFP mRNA by different amphiphiles at different concentrations in a variety of cell lines. Background fluorescence values, accounted by untreated control cells, were subtracted for processing.

HepG2 cells = experiment: RLuc pDNA delivery, robotic library screening, HepG2
Procedure: Cells were seeded in a 96 well plate the day before the experiment at a concentration of 60,000 cell/mL (100 μL/w) in DMEM+10% FBS+1% Gln-Abt. For robotic library screening, the delivery of pDNA encoding for the expression of Renilla luciferase gene (RLuc, pRL-CMV (Promega, #E2261)) in six different cell lines was performed. Amphihilic molecule stock solutions in DMSO were diluted with DMEM and freshly mixed with pDNA stock solutions in DMEM prior to transfection experiments, to afford several complexes at different amphiphile concentration (2-10 μM) while maintaining a constant final pDNA concentration of 2 ng/μL. The mixture was shaken for 30 min at room temperature before the addition to the cells. The cell medium was aspirated, and cells were washed twice with PBS. Finally, 50 μL of the complex's solution were added to the cells and incubated for 4 h. After the incubation, the medium was replaced by 100 μL of fresh DMEM supplemented with 10% FBS. 72 hours after transfection the DMEM was removed, cells were washed once with HBSS and 90 μL of HBSS were added to each well. Cells were incubated at 37° C. for 30 minutes. Then basal luminescence levels were read in a plate reader. Immediately, 10 μL of coelenterazine h in HBSS were added to each well (5 μM final concentration) and cells were incubated at 37° C. for 10 minutes. Finally, the total luminescence measurement of the plates was performed. Amphiphile transfection efficiency was compared and normalized to Lipofectamine® 2000 efficiency (value of 1 in Tables 1-5 and 7; bold numbers). All experiments were done in triplicate.
as §1
Tables 8-13 show the mean (triplicates) luminescent intensity (RLU) measured after the transfection of RLuc pDNA by different amphiphiles at different concentrations in a variety of cell lines. Background luminescence values, accounted by untransfected control cells, were subtracted for processing.

Hek293 cells [2] = experiment: RLuc pDNA delivery, robotic library screening, Hek293

Molecule | mean fluorescence intensity (EGFP mRNA) (Hek293 cells [1]; Dodecanal, 5 μM) | mean fluorescence intensity (EGFP mRNA) (Hek293 cells [1]; Dodecanal, 10 μM) | mean fluorescence intensity (EGFP mRNA) (Hek293 cells [1]; Myristoleyl, 2.5 μM) | mean fluorescence intensity (EGFP mRNA) (Hek293 cells [1]; Myristoleyl, 5 μM) | mean fluorescence intensity (EGFP mRNA) (Hek293 cells [1]; Myristoleyl, 10 μM) | mean fluorescence intensity (EGFP mRNA) (Hek293 cells [1]; Oleyl, 2.5 μM) | mean fluorescence intensity (EGFP mRNA) (Hek293 cells [1]; Oleyl, 5 μM) | mean fluorescence intensity (EGFP mRNA) (Hek293 cells [1]; Oleyl, 10 μM) | mean fluorescence intensity (EGFP mRNA) (Hek293 cells [1]; Petroselinyl, 2.5 μM) | mean fluorescence intensity (EGFP mRNA) (Hek293 cells [1]; Petroselinyl, 5 μM) | mean fluorescence intensity (EGFP mRNA) (Hek293 cells [1]; Petroselinyl, 10 μM) | mean luminescent intensity (RLuc pDNA) (HepG2 cells; Myristoleyl, 5 μM) | mean luminescent intensity (RLuc pDNA) (HepG2 cells; Myristoleyl, 15 μM) | mean luminescent intensity (RLuc pDNA) (HepG2 cells; Oleyl, 10 μM) | mean luminescent intensity (RLuc pDNA) (HepG2 cells; Palmitoleyl, 5 μM) | mean luminescent intensity (RLuc pDNA) (HepG2 cells; Palmitoleyl, 15 μM) | mean luminescent intensity (RLuc pDNA) (Hek293 cells [2]; Palmitoleyl, 5 μM) | mean luminescent intensity (RLuc pDNA) (Hek293 cells [2]; Palmitoleyl, 10 μM) | mean luminescent intensity (RLuc pDNA) (Hek293 cells [2]; Palmitoleyl, 15 μM) | mean luminescent intensity (RLuc pDNA) (Hek293 cells [2]; Petroselinyl, 5 μM) | other results
CC(=O)N[C@@H](CCCNC(=N)N)C(=O)N[C@@H](CCCCNC(=O)CCCC(=O)NN)C(=O)N[C@@H](Cc1c[nH]cn1)C(=O)N[C@@H](CCCNC(=N)N)C(=O)N[C@@H](CCCCNC(=O)CCCC(=O)NN)C(=O)N[C@@H](CCCCNC(=O)CCCC(=O)NN)C(=O)N[C@@H](Cc1c[nH]cn1)C(N)=O [7.3(L-H), Ac-RK*HRK*K*H-NH2] (Ac-RK([Glutaryl-NHNH2])HRK([Glutaryl-NHNH2])K([Glutaryl-NHNH2])H-NH2) | 588 | 3588 | 21438 | 11945 | 1626 | 9690 | 17787 | 1626 | 29561 | 12351 | 6511 | 355590 RLU | 406961 RLU | 68668 RLU | 642665 RLU | 265272 RLU | 294438 RLU | 191190 RLU | 87323 RLU | 286371 RLU | mean fluorescence intensity (EGFP mRNA) (Hek293 cells [1]; Dodecanal, 2.5 μM): 1201; mean fluorescence intensity (EGFP mRNA) (Hek293 cells [1]; Palmitoleyl, 2.5 μM): 13282; mean fluorescence intensity (EGFP mRNA) (Hek293 cells [1]; Palmitoleyl, 5 μM): 12872; mean fluorescence intensity (EGFP mRNA) (Hek293 cells [1]; Palmitoleyl, 10 μM): 4716; mean luminescent intensity (RLuc pDNA) (HepG2 cells; Myristoleyl, 10 μM): 584678 RLU; mean luminescent intensity (RLuc pDNA) (HepG2 cells; Oleyl, 5 μM): 142065 RLU; mean luminescent intensity (RLuc pDNA) (HepG2 cells; Palmitoleyl, 10 μM): 519370 RLU; mean luminescent intensity (RLuc pDNA) (HepG2 cells; Petroselinyl, 5 μM): 466959 RLU; mean luminescent intensity (RLuc pDNA) (HepG2 cells; Petroselinyl, 10 μM): 437890 RLU; mean luminescent intensity (RLuc pDNA) (HepG2 cells; Petroselinyl, 15 μM): 98868 RLU; mean luminescent intensity (RLuc pDNA) (Hek293 cells [2]; Myristoleyl, 5 μM): 330418 RLU; mean luminescent intensity (RLuc pDNA) (Hek293 cells [2]; Myristoleyl, 10 μM): 145597 RLU; mean luminescent intensity (RLuc pDNA) (Hek293 cells [2]; Myristoleyl, 15 μM): 36468 RLU; mean luminescent intensity (RLuc pDNA) (Hek293 cells [2]; Petroselinyl, 10 μM): 237379 RLU; mean luminescent intensity (RLuc pDNA) (Hek293 cells [2]; Petroselinyl, 15 μM): 157061 RLU
Ac-RHLK*RHK*RRLK*RH-NH2 (Ac-RHLKRHKRRLKRH-NH2; not fully specified (residues 4, 7, 11); printed as Ac-RHLK*RHK*RRLK*RH-NH2; also: linker on K* not given here) [13(3His)] | 1878 | 1687 | 2039 | 1952 | 3636 | 2611 | 735 | 1303 | 3629 | 2394 | 2964 | 149920 RLU | 29774 RLU | 33557 RLU | 65912 RLU | 17170 RLU | 46216 RLU | 51837 RLU | 10351 RLU | 330418 RLU | mean luminescent intensity (RLuc pDNA) (HepG2 cells; Oleyl, 15 μM): 1389 RLU; mean luminescent intensity (RLuc pDNA) (Hek293 cells [2]; Oleyl, 5 μM): 294438 RLU; mean luminescent intensity (RLuc pDNA) (Hek293 cells [2]; Oleyl, 10 μM): 191190 RLU; mean luminescent intensity (RLuc pDNA) (Hek293 cells [2]; Oleyl, 15 μM): 87323 RLU; mean luminescent intensity (RLuc pDNA) (Hek293 cells [2]; Petroselinyl, 10 μM): 145597 RLU; mean luminescent intensity (RLuc pDNA) (Hek293 cells [2]; Petroselinyl, 15 μM): 36468 RLU
